The compounds below were run on UO-31 (assay: Growth inhibition of human UO31 cells assessed as cell growth at 10 uM incubated for 48 hrs by sulforhodamine B assay relative to control). Settings: UO-31, 48 h, read-out: Activity.
Type: functional

First: CCOC(=O)c1c(C)oc2ncnc(Nc3ccc(F)c(Cl)c3)c12
Second: Cc1oc2ncnc(Nc3cccc(F)c3)c2c1C(=O)O
The growth at 10 µM of the first is lower: 88.5% for the first, 92.7% for the second.

Each compound was assayed on M14 (assay: Growth inhibition of human M14 cells assessed as cell growth at 10 uM incubated for 48 hrs by sulforhodamine B assay relative to control). Settings: M14, 48 h, read-out: Activity.
Type: functional

First: CCOC(=O)c1c(C)oc2ncnc(Nc3ccc(F)c(Cl)c3)c12
Second: Cc1oc2ncnc(Nc3cccc(F)c3)c2c1C(=O)O
The growth at 10 µM of the first is lower: 110% for the first, 112% for the second.

Each compound was assayed on SK-MEL-5 (assay: Growth inhibition of human SK-MEL-5 cells assessed as cell growth at 10 uM incubated for 48 hrs by sulforhodamine B assay relative to control). Settings: SK-MEL-5, 48 h, read-out: Activity.
Type: functional

Going from `CCOC(=O)c1c(C)oc2ncnc(Nc3ccc(F)c(Cl)c3)c12` to `Cc1oc2ncnc(Nc3cccc(F)c3)c2c1C(=O)O`, the growth at 10 µM rises from 94.5% to 99.6%.

Each compound was assayed on T47D (assay: Growth inhibition of human T47D cells assessed as cell growth at 10 uM incubated for 48 hrs by sulforhodamine B assay relative to control). Settings: read-out: Activity.
Type: functional

First: CCOC(=O)c1c(C)oc2ncnc(Nc3ccc(F)c(Cl)c3)c12
Second: Cc1oc2ncnc(Nc3cccc(F)c3)c2c1C(=O)O
The growth at 10 µM of the first is lower: 83.8% for the first, 95.6% for the second.

Each compound was assayed on A498 (assay: Growth inhibition of human A498 cells assessed as cell growth at 10 uM incubated for 48 hrs by sulforhodamine B assay relative to control). Settings: A498, 48 h, read-out: Activity.
Type: functional

First: CCOC(=O)c1c(C)oc2ncnc(Nc3ccc(F)c(Cl)c3)c12
Second: Cc1oc2ncnc(Nc3cccc(F)c3)c2c1C(=O)O
The growth at 10 µM of the first is lower: 87.4% for the first, 90.5% for the second.

These compounds were tested on SF-539 (assay: Growth inhibition of human SF539 cells assessed as cell growth at 10 uM incubated for 48 hrs by sulforhodamine B assay relative to control). Settings: SF-539, 48 h, read-out: Activity.
Type: functional

Going from `CCOC(=O)c1c(C)oc2ncnc(Nc3ccc(F)c(Cl)c3)c12` to `Cc1oc2ncnc(Nc3cccc(F)c3)c2c1C(=O)O`, the growth at 10 µM falls from 104% to 92.5%.

What follows are compounds tested on UACC-62 (assay: Growth inhibition of human UACC62 cells assessed as cell growth at 10 uM incubated for 48 hrs by sulforhodamine B assay relative to control). Settings: UACC-62, 48 h, read-out: Activity.
Type: functional

Going from `CCOC(=O)c1c(C)oc2ncnc(Nc3ccc(F)c(Cl)c3)c12` to `Cc1oc2ncnc(Nc3cccc(F)c3)c2c1C(=O)O`, the growth at 10 µM falls from 94.9% to 90.2%.

The compounds below were run on NCI-H460 (assay: Growth inhibition of human NCI-H460 cells assessed as cell growth at 10 uM incubated for 48 hrs by sulforhodamine B assay relative to control). Settings: NCI-H460, 48 h, read-out: Activity.
Type: functional

Compared with `CCOC(=O)c1c(C)oc2ncnc(Nc3ccc(F)c(Cl)c3)c12`, `Cc1oc2ncnc(Nc3cccc(F)c3)c2c1C(=O)O` is lower in growth at 10 µM: 106% for the first, 104% for the second.

The compounds below were run on OVCAR-5 (assay: Growth inhibition of human OVCAR5 cells assessed as cell growth at 10 uM incubated for 48 hrs by sulforhodamine B assay relative to control). Settings: OVCAR-5, 48 h, read-out: Activity.
Type: functional

First: CCOC(=O)c1c(C)oc2ncnc(Nc3ccc(F)c(Cl)c3)c12
Second: Cc1oc2ncnc(Nc3cccc(F)c3)c2c1C(=O)O
The growth at 10 µM of the first is higher: 112% for the first, 97.6% for the second.

Each compound was assayed on CCRF-CEM (assay: Growth inhibition of human CCRF-CEM cells assessed as cell growth at 10 uM incubated for 48 hrs by sulforhodamine B assay relative to control). Settings: read-out: Activity.
Type: functional

`Cc1oc2ncnc(Nc3cccc(F)c3)c2c1C(=O)O` was tested, and the growth at 10 µM was 110%.

What follows are compounds tested on OVCAR-8 (assay: Growth inhibition of human OVCAR8 cells assessed as cell growth at 10 uM incubated for 48 hrs by sulforhodamine B assay relative to control). Settings: OVCAR-8, 48 h, read-out: Activity.
Type: functional

Compared with `CCOC(=O)c1c(C)oc2ncnc(Nc3ccc(F)c(Cl)c3)c12`, `Cc1oc2ncnc(Nc3cccc(F)c3)c2c1C(=O)O` is higher in growth at 10 µM: 100% for the first, 112% for the second.

What follows are compounds tested on SR (assay: Growth inhibition of human SR cells assessed as cell growth at 10 uM incubated for 48 hrs by sulforhodamine B assay relative to control). Settings: read-out: Activity.
Type: functional

Compared with `CCOC(=O)c1c(C)oc2ncnc(Nc3ccc(F)c(Cl)c3)c12`, `Cc1oc2ncnc(Nc3cccc(F)c3)c2c1C(=O)O` is higher in growth at 10 µM: 96.8% for the first, 104% for the second.

The compounds below were run on NCI-H226 (assay: Growth inhibition of human NCI-H226 cells assessed as cell growth at 10 uM incubated for 48 hrs by sulforhodamine B assay relative to control). Settings: NCI-H226, 48 h, read-out: Activity.
Type: functional

First: CCOC(=O)c1c(C)oc2ncnc(Nc3ccc(F)c(Cl)c3)c12
Second: Cc1oc2ncnc(Nc3cccc(F)c3)c2c1C(=O)O
The growth at 10 µM of the first is lower: 94.6% for the first, 109% for the second.

Each compound was assayed on COLO 205 (assay: Growth inhibition of human COLO205 cells assessed as cell growth at 10 uM incubated for 48 hrs by sulforhodamine B assay relative to control). Settings: COLO 205, 48 h, read-out: Activity.
Type: functional

Going from `CCOC(=O)c1c(C)oc2ncnc(Nc3ccc(F)c(Cl)c3)c12` to `Cc1oc2ncnc(Nc3cccc(F)c3)c2c1C(=O)O`, the growth at 10 µM falls from 110% to 109%.

These compounds were tested on NCI/ADR-RES (assay: Growth inhibition of human NCI/ADR-RES cells assessed as cell growth at 10 uM incubated for 48 hrs by sulforhodamine B assay relative to control). Settings: read-out: Activity.
Type: functional

First: CCOC(=O)c1c(C)oc2ncnc(Nc3ccc(F)c(Cl)c3)c12
Second: Cc1oc2ncnc(Nc3cccc(F)c3)c2c1C(=O)O
The growth at 10 µM of the first is higher: 107% for the first, 105% for the second.

What follows are compounds tested against Epidermal growth factor receptor (Homo sapiens, UniProt P00533) (assay: Inhibition of recombinant human C-terminal His/N-terminal GST-tagged EGFR (668 to 1210 residues) expressed in baculovirus infected Sf9 cells at 10 uM using biotin-labeled poly[Glu:Tyr] (4:1) as substrate after 30 mins by Kinase-Glo plus luminescence assay relative to control). Settings: not given.
Sequence of Epidermal growth factor receptor (P00533 whole entry, the tested form may be a part): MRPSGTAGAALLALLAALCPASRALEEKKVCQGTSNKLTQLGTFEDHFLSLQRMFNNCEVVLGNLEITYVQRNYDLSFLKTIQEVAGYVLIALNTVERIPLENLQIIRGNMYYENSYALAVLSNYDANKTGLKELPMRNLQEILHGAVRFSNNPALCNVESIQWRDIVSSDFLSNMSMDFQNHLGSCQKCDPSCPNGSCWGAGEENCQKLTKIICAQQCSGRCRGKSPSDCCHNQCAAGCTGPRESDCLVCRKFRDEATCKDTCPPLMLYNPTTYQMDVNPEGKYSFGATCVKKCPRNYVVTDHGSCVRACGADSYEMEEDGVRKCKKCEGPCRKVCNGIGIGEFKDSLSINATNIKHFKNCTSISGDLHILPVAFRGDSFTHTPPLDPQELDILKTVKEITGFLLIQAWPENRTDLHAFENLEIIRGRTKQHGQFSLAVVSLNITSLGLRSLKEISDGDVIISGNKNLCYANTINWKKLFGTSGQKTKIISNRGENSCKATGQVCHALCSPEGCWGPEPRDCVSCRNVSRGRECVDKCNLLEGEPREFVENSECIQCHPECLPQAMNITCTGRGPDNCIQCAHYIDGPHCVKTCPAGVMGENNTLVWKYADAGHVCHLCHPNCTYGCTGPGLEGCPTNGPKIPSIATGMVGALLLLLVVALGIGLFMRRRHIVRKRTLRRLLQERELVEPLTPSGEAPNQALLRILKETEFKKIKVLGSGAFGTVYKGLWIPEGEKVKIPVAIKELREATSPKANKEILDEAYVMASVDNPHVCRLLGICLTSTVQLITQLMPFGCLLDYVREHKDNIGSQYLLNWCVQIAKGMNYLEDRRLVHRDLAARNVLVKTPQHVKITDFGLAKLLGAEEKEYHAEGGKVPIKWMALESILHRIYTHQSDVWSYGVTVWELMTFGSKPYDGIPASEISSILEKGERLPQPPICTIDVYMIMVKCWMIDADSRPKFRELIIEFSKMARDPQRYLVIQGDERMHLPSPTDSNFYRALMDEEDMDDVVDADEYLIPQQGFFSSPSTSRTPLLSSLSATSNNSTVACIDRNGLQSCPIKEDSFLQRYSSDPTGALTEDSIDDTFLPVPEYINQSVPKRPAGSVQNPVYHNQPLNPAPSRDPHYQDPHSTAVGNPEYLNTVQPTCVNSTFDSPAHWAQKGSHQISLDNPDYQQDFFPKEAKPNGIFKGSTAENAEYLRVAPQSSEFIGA

First: CCOC(=O)c1c(C)oc2ncnc(Nc3ccc(F)c(Cl)c3)c12
Second: Cc1oc2ncnc(Nc3cccc(F)c3)c2c1C(=O)O
The inhibition of the first is lower: 10% for the first, 49% for the second.

These compounds were tested on SK-MEL-28 (assay: Growth inhibition of human SK-MEL-28 cells assessed as cell growth at 10 uM incubated for 48 hrs by sulforhodamine B assay relative to control). Settings: SK-MEL-28, 48 h, read-out: Activity.
Type: functional

First: CCOC(=O)c1c(C)oc2ncnc(Nc3ccc(F)c(Cl)c3)c12
Second: Cc1oc2ncnc(Nc3cccc(F)c3)c2c1C(=O)O
The growth at 10 µM of the first is higher: 110% for the first, 103% for the second.

What follows are compounds tested on KM12 (assay: Growth inhibition of human KM12 cells assessed as cell growth at 10 uM incubated for 48 hrs by sulforhodamine B assay relative to control). Settings: KM12, 48 h, read-out: Activity.
Type: functional

First: CCOC(=O)c1c(C)oc2ncnc(Nc3ccc(F)c(Cl)c3)c12
Second: Cc1oc2ncnc(Nc3cccc(F)c3)c2c1C(=O)O
The growth at 10 µM of the first is higher: 104% for the first, 102% for the second.

What follows are compounds tested on DU-145 (assay: Growth inhibition of human DU145 cells assessed as cell growth at 10 uM incubated for 48 hrs by sulforhodamine B assay relative to control). Settings: DU-145, 48 h, read-out: Activity.
Type: functional

Going from `CCOC(=O)c1c(C)oc2ncnc(Nc3ccc(F)c(Cl)c3)c12` to `Cc1oc2ncnc(Nc3cccc(F)c3)c2c1C(=O)O`, the growth at 10 µM rises from 103% to 107%.

These compounds were tested on SK-OV-3 (assay: Growth inhibition of human SKOV3 cells assessed as cell growth at 10 uM incubated for 48 hrs by sulforhodamine B assay relative to control). Settings: SK-OV-3, 48 h, read-out: Activity.
Type: functional

Compared with `CCOC(=O)c1c(C)oc2ncnc(Nc3ccc(F)c(Cl)c3)c12`, `Cc1oc2ncnc(Nc3cccc(F)c3)c2c1C(=O)O` is higher in growth at 10 µM: 90.7% for the first, 102% for the second.

What follows are compounds tested on HCT-15 (assay: Growth inhibition of human HCT15 cells assessed as cell growth at 10 uM incubated for 48 hrs by sulforhodamine B assay relative to control). Settings: HCT-15, 48 h, read-out: Activity.
Type: functional

First: CCOC(=O)c1c(C)oc2ncnc(Nc3ccc(F)c(Cl)c3)c12
Second: Cc1oc2ncnc(Nc3cccc(F)c3)c2c1C(=O)O
The growth at 10 µM of the first is higher: 112% for the first, 101% for the second.

These compounds were tested on K562 (assay: Growth inhibition of human K562 cells assessed as cell growth at 10 uM incubated for 48 hrs by sulforhodamine B assay relative to control). Settings: K562, 48 h, read-out: Activity.
Type: functional

Compared with `CCOC(=O)c1c(C)oc2ncnc(Nc3ccc(F)c(Cl)c3)c12`, `Cc1oc2ncnc(Nc3cccc(F)c3)c2c1C(=O)O` is higher in growth at 10 µM: 93.8% for the first, 98.5% for the second.

Each compound was assayed on CAKI-1 (assay: Growth inhibition of human Caki1 cells assessed as cell growth at 10 uM incubated for 48 hrs by sulforhodamine B assay relative to control). Settings: CAKI-1, 48 h, read-out: Activity.
Type: functional

First: CCOC(=O)c1c(C)oc2ncnc(Nc3ccc(F)c(Cl)c3)c12
Second: Cc1oc2ncnc(Nc3cccc(F)c3)c2c1C(=O)O
The growth at 10 µM of the first is higher: 106% for the first, 93.8% for the second.

These compounds were tested on LOX IMVI (assay: Growth inhibition of human LOXIMVI cells assessed as cell growth at 10 uM incubated for 48 hrs by sulforhodamine B assay relative to control). Settings: read-out: Activity.
Type: functional

First: CCOC(=O)c1c(C)oc2ncnc(Nc3ccc(F)c(Cl)c3)c12
Second: Cc1oc2ncnc(Nc3cccc(F)c3)c2c1C(=O)O
The growth at 10 µM of the first is higher: 103% for the first, 98% for the second.

What follows are compounds tested on SNB-75 (assay: Growth inhibition of human SNB75 cells assessed as cell growth at 10 uM incubated for 48 hrs by sulforhodamine B assay relative to control). Settings: SNB-75, 48 h, read-out: Activity.
Type: functional

First: CCOC(=O)c1c(C)oc2ncnc(Nc3ccc(F)c(Cl)c3)c12
Second: Cc1oc2ncnc(Nc3cccc(F)c3)c2c1C(=O)O
The growth at 10 µM of the first is higher: 113% for the first, 85.8% for the second.

The compounds below were run on HOP-62 (assay: Growth inhibition of human HOP62 cells assessed as cell growth at 10 uM incubated for 48 hrs by sulforhodamine B assay relative to control). Settings: HOP-62, 48 h, read-out: Activity.
Type: functional

Going from `CCOC(=O)c1c(C)oc2ncnc(Nc3ccc(F)c(Cl)c3)c12` to `Cc1oc2ncnc(Nc3cccc(F)c3)c2c1C(=O)O`, the growth at 10 µM falls from 101% to 98.4%.
